Columns and labels:
xanthine oxidase = xanthine oxidase (Bos taurus, UniProt P80457); assay: Assessment of xanthine oxidase inhibitory activity (spectrophotometric, 290 nm); type: biochemical; settings: for IC50: 150 μM xanthine, 70 mM phosphate buffer pH 7.5, 25 °C, mean of four determinations, read-out: XO inhibitory activity IC50
Experimental: The assay mixture consisting of 50 μL of test solution, 35 μL of 70 mM phosphate buffer (pH 7.5), and 30 μL of enzyme solution (0.01 units/mL in 70 mM phosphate buffer, pH 7.5) was prepared immediately before use. […] The reaction was stopped by adding 25 μL of HCl 1 N, and the absorbance at 290 nm was measured with a Shimadzu UV-1800. […] XO inhibitory activity was expressed as the percentage inhibition of XO in the above assay system, calculated as (1 − B/A) × 100, where A and B are the activities of the enzyme without and with the test material. IC50 values were calculated from the mean values of data from four determinations.

Chain of xanthine oxidase (P80457 2-1332 limits assumed): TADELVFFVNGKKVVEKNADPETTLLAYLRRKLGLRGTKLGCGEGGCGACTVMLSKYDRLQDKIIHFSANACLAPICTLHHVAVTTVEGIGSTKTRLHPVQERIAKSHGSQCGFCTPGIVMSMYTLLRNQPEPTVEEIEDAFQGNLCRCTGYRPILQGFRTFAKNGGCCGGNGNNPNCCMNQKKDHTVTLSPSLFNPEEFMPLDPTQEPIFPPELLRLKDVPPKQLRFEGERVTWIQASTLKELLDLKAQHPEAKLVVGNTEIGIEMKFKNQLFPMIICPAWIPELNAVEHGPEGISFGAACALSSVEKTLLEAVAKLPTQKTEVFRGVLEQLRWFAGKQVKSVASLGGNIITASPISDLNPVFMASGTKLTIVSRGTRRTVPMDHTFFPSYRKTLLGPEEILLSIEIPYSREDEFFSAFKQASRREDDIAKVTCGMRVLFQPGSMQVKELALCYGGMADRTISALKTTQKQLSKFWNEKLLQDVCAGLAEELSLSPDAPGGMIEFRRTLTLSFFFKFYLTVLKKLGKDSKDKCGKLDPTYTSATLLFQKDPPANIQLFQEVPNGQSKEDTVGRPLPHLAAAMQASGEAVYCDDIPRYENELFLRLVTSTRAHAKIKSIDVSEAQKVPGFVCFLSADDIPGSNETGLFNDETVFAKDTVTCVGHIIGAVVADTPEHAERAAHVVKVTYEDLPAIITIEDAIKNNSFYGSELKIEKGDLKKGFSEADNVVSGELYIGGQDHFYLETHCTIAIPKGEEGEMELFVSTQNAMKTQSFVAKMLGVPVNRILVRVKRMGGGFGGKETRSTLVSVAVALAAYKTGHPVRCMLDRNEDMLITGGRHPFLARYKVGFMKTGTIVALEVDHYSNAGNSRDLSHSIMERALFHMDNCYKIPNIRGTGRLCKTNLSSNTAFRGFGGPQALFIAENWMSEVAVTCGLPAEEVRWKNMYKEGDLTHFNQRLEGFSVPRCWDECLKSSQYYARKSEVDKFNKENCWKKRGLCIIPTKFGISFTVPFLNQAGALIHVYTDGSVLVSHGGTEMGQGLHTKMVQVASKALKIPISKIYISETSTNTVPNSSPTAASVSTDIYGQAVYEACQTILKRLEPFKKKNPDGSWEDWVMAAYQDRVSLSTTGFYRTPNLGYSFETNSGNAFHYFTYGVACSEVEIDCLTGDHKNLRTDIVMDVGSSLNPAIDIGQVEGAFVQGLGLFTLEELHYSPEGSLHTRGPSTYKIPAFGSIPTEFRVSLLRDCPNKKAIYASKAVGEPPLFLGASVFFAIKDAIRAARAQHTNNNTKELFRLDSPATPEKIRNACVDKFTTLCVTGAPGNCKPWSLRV

## COc1ccc(/C=C/C(=O)c2ccc(O)cc2O)cc1OC [Compound 9, 2ʹ,4ʹ-dihydroxy-3,4-dimethoxychalcone]
Xanthine oxidase
  IC50: > 100 µM

## O=C(/C=C/c1ccc(O)c(O)c1)c1ccc(O)cc1O [Compound 5, 3,4,2ʹ,4ʹ-tetrahydroxychalcone]
Xanthine oxidase
  IC50: 4.3 µM

## O=C(/C=C/c1ccccc1)c1ccccc1 [Compound 18, chalcone]
Xanthine oxidase
  XO inhibitory activity (in words): not displayed xanthine oxidase inhibitory activity
  IC50: > 100 µM

## COc1ccc(/C=C/C(=O)c2ccccc2)cc1O [Compound 14, 3-hydroxy-4-methoxychalcone]
Xanthine oxidase
  IC50: > 100 µM

## COc1ccc(C(=O)/C=C/c2ccc(OC)c(OC)c2)c(O)c1 [Compound 16, 2ʹ-hydroxy-3,4,4ʹ-trimethoxychalcone]
Xanthine oxidase
  IC50: > 100 µM

## CC(=O)Oc1ccc(C(=O)/C=C/c2ccc(OC(C)=O)c(OC(C)=O)c2)c(O)c1 [Compound 17, 3,4,4ʹ-triacetoxy-2ʹ-hydroxychalcone]
Xanthine oxidase
  IC50: > 100 µM
other
  melting point: 110 to 111 °C

## O=C(/C=C/c1ccccc1)c1ccc(O)cc1O [Compound 4, 2′,4′-dihydroxychalcone]
Xanthine oxidase
  XO inhibitory activity (in words): do not show activity
  IC50: > 100 µM

## COc1ccc(/C=C/C(=O)c2ccc(O)cc2O)c(O)c1 [Compound 12, 2,2ʹ,4ʹ-trihydroxy-4-methoxychalcone]
Xanthine oxidase
  IC50: 21.8 µM

## COc1ccc(C(=O)/C=C/c2ccc(O)c(O)c2)c(OC)c1 [Compound 11, 3,4-dihydroxy-2ʹ,4ʹ-dimethoxychalcone]
Xanthine oxidase
  IC50: 2.5 µM

## COc1ccc(C(=O)/C=C/c2ccc(O)c(O)c2)c(O)c1 [Compound 10, 3,4,2ʹ-trihydroxy-4ʹ-methoxychalcone]
Xanthine oxidase
  IC50: 19.2 µM

## COc1ccc(/C=C/C(=O)c2ccc(O)cc2O)cc1O [Compound 8, 3,2ʹ,4ʹ-trihydroxy-4-methoxychalcone]
Xanthine oxidase
  IC50: 36.7 µM

## O=C(/C=C/c1ccc(O)c(O)c1)c1ccccc1 [Compound 3, 3,4-dihydroxychalcone]
Xanthine oxidase
  IC50: 40.9 µM

## COc1ccc(C(=O)/C=C/c2ccc(O)c(O)c2)c(O)c1C(=O)/C=C/c1ccc(O)c(O)c1 [Compound 13, 3ʹ-caffeoyl-3,4,2ʹ-trihydroxy-4ʹ-methoxychalcone]
Xanthine oxidase
  XO inhibitory activity (in words): most potent active
  IC50: 2.4 µM
other
  melting point: 200 to 201 °C

## COc1ccc(/C=C/C(=O)c2ccccc2)cc1OC [Compound 15, 3,4-dimethoxychalcone]
Xanthine oxidase
  IC50: > 100 µM

## O=C(/C=C/c1ccc(O)cc1O)c1ccc(O)cc1O [Compound 6, 2,4,2′,4′-tetrahydroxychalcone]
Xanthine oxidase
  IC50: 16.3 µM
